Entries after “also recorded” stand apart in the source; their conditions may differ. Structures can show the parent of a compound that is named as a salt. Where two headings read alike, the source gives them in different places.
Experiments:
cAMP kinase = system: cAMP kinase; design: method as in PMID 20981028; settings: in presence of 30% human serum; cited from earlier work
[1] = biological target: enriched polyclonal antibodies purified from mouse or patient serum; experiment: SPR competitive inhibition of enriched polyclonal antibody binding to immobilized BSA-SNC
Description: (§1) Data was collected using a medium collection rate at 25°C. The instrument was primed a few times using the running buffer before injecting the concentration series. For every binding cycle, the antibody samples were injected for 1.5 minutes at 50 µl/min flow rate and dissociation was monitored for 5 minutes. The bound antibody was releasedwith two 15 µl injections of pH 1.5 glycine buffer. The kinetic constants of binding were obtained using a 1∶1 Langmuir binding model. The raw data sets were analyzed using BIAevaluation (version 3.2) provided by BIAcore Inc. (Uppsala, Sweden). After the subtraction of background responses from the control flow cells, the association and dissociation phases were globally fitted for all the sensorgrams simultaneously, omitting any noisy data at the beginning and end of the analyte injection.

mAb08 [2] = experiment: SPR competitive inhibition of mAb08 binding to immobilized BSA-SNC; design: species or system mouse; settings: 50 nM mAb08 mixed with increasing drug concentrations
f-mAb08 = experiment: MST of fluorescently labeled f-mAb08 binding to drugs; design: species or system mouse; settings: 25°C
Description: The fluorescent labeling was performed with a reactive RED dye (NT-647) following the manufacturer’s protocol (Nanotemper, Germany). […] Free dye was removed by purification on a Sephadex G-25 column provided with the kit. MST assays were carried out as described in Jerabek-Willesmsen et al.. Serial dilutions of unlabeled drug or antibody samples were mixed with 20 nM of NT-647-labeled proteins in PBS buffer (25 mM phosphate pH 7.4, 150 mM NaCl, 0.05% Tween-20) and incubated for 20 minutes. About 10 µl of sample was loaded into standard monolith NT capillaries provided by the manufacturer and assays were performed in a Nanotemper Monolith NT.015T. The Red fluorescence was exited using a light-emitting diode, and its emission was recorded at a focused location of capillary. Using another infrared laser diode a microscopic temperature gradient was created at the same location and the fluorescence depletion was measured. By plotting the concentrations of unlabeled binding partner with the changes in fluorescent thermophoresis signal, K D values were determined using the Nanotemper analysis software. The overlay diagram was made by normalizing the data to fraction bound.

[3] = cited from earlier work
nonspecific human IgG = experiment: ITC of cocaine in presence of nonspecific human IgG; format: binding; settings: 7 µM non-specific human IgG with mAb08
Description: (§2) ITC experiments were performed using an ITC-200 micro calorimeter from MicroCal (Northampton, MA, USA). Samples were dialyzed against PBS buffer and degassed prior to loading into the ITC cell. The drug samples were prepared in the same buffer to avoid buffer mismatch. Titrations were performed at 25°C by injecting consecutive aliquots (2 µl) of 45 µM drug into the ITC cell (volume of 200 µl) containing 3 µM antibody at 500 rpm stirring rate. Intervals between injections were set to be 150 sec in order to allow the heat from each injection to return to the baseline. Heats of dilution control experiments were performed by titrating ligand into buffer. The heats associated with the control titration were subtraced from the raw binding data prior to fitting. The data were fitted assuming that the antibody binding sites are identical using a single set binding model included in the Origin 7.0 software provided by the manufacturer. ITC directly measures the change in heat associated with two components going from the free to the bound state. Thus the observed molar change in enthalpy (ΔHobs) can be determined.
(§3) The thermodynamic parameters associated with the binding of cocaine to human serum and human serum albumin were investigated using ITC. We titrated 45 µM of cocaine to 20% of control human serum (no anti-cocaine antibodies) dialyzed against PBS (Figure 4A).

human serum albumin = human serum albumin (Homo sapiens, UniProt P02768); experiment: ITC titration of cocaine into human serum albumin; format: binding; settings: 5 µM HSA against 45 µM cocaine in PBS
Sequence of human serum albumin (P02768 25-609): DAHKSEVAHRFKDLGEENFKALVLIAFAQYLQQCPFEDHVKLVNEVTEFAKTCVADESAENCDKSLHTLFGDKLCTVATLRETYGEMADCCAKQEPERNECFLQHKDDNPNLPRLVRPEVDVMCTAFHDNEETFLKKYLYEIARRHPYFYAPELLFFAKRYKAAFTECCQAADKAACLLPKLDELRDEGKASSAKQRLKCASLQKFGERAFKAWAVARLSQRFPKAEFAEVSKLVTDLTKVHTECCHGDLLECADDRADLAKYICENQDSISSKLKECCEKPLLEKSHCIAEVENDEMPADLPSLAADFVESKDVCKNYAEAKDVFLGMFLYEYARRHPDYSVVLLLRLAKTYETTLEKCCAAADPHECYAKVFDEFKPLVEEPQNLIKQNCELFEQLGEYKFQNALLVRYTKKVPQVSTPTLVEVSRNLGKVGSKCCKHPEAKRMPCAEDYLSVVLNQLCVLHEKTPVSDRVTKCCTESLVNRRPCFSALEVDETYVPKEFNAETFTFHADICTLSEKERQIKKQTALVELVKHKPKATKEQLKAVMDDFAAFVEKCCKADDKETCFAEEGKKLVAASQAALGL
Description: as §2, §3

20% human serum = experiment: ITC titration of cocaine into 20% control human serum; format: binding
Description: as §2, §3

mAb08 [4] = experiment: ITC titration of drug into mAb08; format: binding, mouse; settings: 25°C
Description: as §2
The binding isotherms, which is the incremental heat release as a function of complex formation is shown in the lower panel of Fig. 3. The solid line corresponds to the fit to a binding model to yield the equilibrium binding constant, K D, and the binding parameters, n and ΔH obs. The results of data analysis are shown in Table 1 along with the derived parameters, ΔGcal and ΔScal.
as §3

Clone 402 = experiment: ITC titration of cocaine into Clone 402 antibody; format: binding
Description: as §2

[5] = system: RR6 enriched polyclonal antibodies; experiment: SPR competitive inhibition of RR6 enriched polyclonal antibody binding to immobilized BSA-SNC; design: species or system mouse
Description: as §1

[6] = 20 nM f-mAb08, 20% control human serum, read-out: K D ^2 (nM) (Serum%)
[7] = 20 nM f-mAb08, PBS (phosphate buffer), read-out: K D ^1 (nM) Enriched IgG

O=c1c(O)c(-c2ccc(O)c(O)c2)oc2cc(O)cc(O)c12 [quercetin]
fold decrease in affinity (cAMP kinase): 400 fold

COC(=O)[C@H]1[C@@H](OC(=O)c2ccccc2)C[C@@H]2CC[C@H]1N2C [Cocaine, Cocaine hydrochloride]
IC50 [1]: 100 to 500 nM | IC50 (mAb08 [2]): ~100 nM | IC50 (mAb08 [2]; listed as cocaine): ~104 nM | Kd (f-mAb08; [6]): 105 nM | Kd (f-mAb08; 20 nM f-mAb08, 50% control human serum, listed as cocaine, read-out: K D ^2 (nM) (Serum%)): ~100 nM | Kd (f-mAb08; 20 nM f-mAb08, 50% control human serum, read-out: K D ^2 (nM) (Serum%)): 128 nM | Kd (f-mAb08; [7]): 7.8 nM | elimination half-life ([3]; depends on route of administration): 1 to 1.5 h | binding to nonspecific human IgG (nonspecific human IgG): very little interaction; also recorded: absence of non-specific cocaine binding | binding to human serum albumin (human serum albumin): very little interaction; also recorded: no detectable binding; also recorded: does not bind strongly | Kd (20% human serum; 45 µM cocaine to 20% control human serum): ~2000 nM | Kd (20% human serum; 25°C, sample 20% Serum): 2000 nM | ΔGcal (20% human serum; 25°C, sample 20% Serum): -7.8 kcal/mol | ΔHobs (20% human serum; 25°C, sample 20% Serum): -21.82 ± 3.16 kcal/mol | ΔScal (20% human serum; 25°C, sample 20% Serum): −47.1 cal.mol^−1K^−1 | Kd (mAb08 [4]; PBS pH 7.4, sample mAb08): 2.5 ± 6.8 nM | ΔGcal (mAb08 [4]; PBS pH 7.4, sample mAb08): -11.7 kcal/mol | ΔHobs (mAb08 [4]; PBS pH 7.4, sample mAb08): -28.08 ± 0.37 kcal/mol | ΔScal (mAb08 [4]; PBS pH 7.4, sample mAb08): −54.8 cal.mol^−1K^−1 | Kd (mAb08 [4]; sample mAb08+7 µM hIgG): 4 ± 10.5 nM | ΔGcal (mAb08 [4]; sample mAb08+7 µM hIgG): -11.5 kcal/mol | ΔHobs (mAb08 [4]; sample mAb08+7 µM hIgG): -28.58 ± 0.35 kcal/mol | ΔScal (mAb08 [4]; sample mAb08+7 µM hIgG): −57.4 cal.mol^−1K^−1 | ΔHobs (mAb08 [4]; sample mAb08+7 µM hIgG, listed as cocaine): -28 kcal/mol | Kd (mAb08 [4]; sample mAb08+20% Serum): 113 nM | ΔGcal (mAb08 [4]; sample mAb08+20% Serum): -9.5 kcal/mol | ΔHobs (mAb08 [4]; sample mAb08+20% Serum): -33.19 ± 0.61 kcal/mol | ΔScal (mAb08 [4]; sample mAb08+20% Serum): −79.5 cal.mol^−1K^−1 | Kd (mAb08 [4]; sample mAb08+20% Serum, listed as cocaine): ~113 nM | ΔGcal (Clone 402; ITC, 25°C, sample Clone 402): -6.8 kcal/mol | ΔHobs (Clone 402; ITC, 25°C, sample Clone 402): -26.4 ± 1.93 kcal/mol | ΔScal (Clone 402; ITC, 25°C, sample Clone 402): −65.6 cal.mol^−1K^−1 | Kd (Clone 402; ITC, 25°C, sample Clone 402, read-out: K D): 10000 nM | Kd (Clone 402; clone 402 (Arista Biologicals), read-out: affinity to cocaine): ~10000 nM

CN1[C@H]2CC[C@@H]1[C@@H](C(=O)O)[C@@H](OC(=O)c1ccccc1)C2 [Benzoylecgonine]
IC50 (mAb08 [2]): 123 nM | IC50 (mAb08 [2]; listed as BE): ~123 nM | Kd (f-mAb08; [6]): 98 nM | Kd (f-mAb08; [7]): 23.7 nM | elimination half-life [3]: 6 to 8 h | inhibition of RR6 enriched fraction binding to BSA-SNC [5]: did not show any significant inhibition | Kd (mAb08 [4]; PBS pH 7.4, sample mAb08): 18.6 ± 48.7 nM | ΔGcal (mAb08 [4]; PBS pH 7.4, sample mAb08): -10.5 kcal/mol | ΔHobs (mAb08 [4]; PBS pH 7.4, sample mAb08): -21.66 ± 0.61 kcal/mol | ΔScal (mAb08 [4]; PBS pH 7.4, sample mAb08): −37.3 cal.mol^−1K^−1

CCOC(=O)[C@@H]1C2CCC(C[C@@H]1OC(=O)c1ccccc1)N2C (stereo partly drawn) [Cocaethylene]
Kd (f-mAb08; [6]): 169 nM | Kd (f-mAb08; [7]): 47 nM | Kd (mAb08 [4]; PBS pH 7.4, sample mAb08): 34.4 nM | ΔGcal (mAb08 [4]; PBS pH 7.4, sample mAb08): -10.2 kcal/mol | ΔHobs (mAb08 [4]; PBS pH 7.4, sample mAb08): -21.16 ± 0.48 kcal/mol | ΔScal (mAb08 [4]; PBS pH 7.4, sample mAb08): −36.8 cal.mol^−1K^−1
